One may read the melting point as the temperature, or range, at which the solid turns liquid.

Molecules are shown by their SMILES.

`Cc1cc(C)c(C2C(=O)OC3(CCN(N(C)C)CC3)C2=O)c(C)c1` (stereo not shown) [A11, 8-Dimethylamino-3-(2,4,6-trimethyl-phenyl)-1-oxa-8-azaspiro[4.5]decane-2,4-dione] gave a melting point of more than 200 °C.

Values taken from patent US8703165B2, “Spiro fused 1-amino-piperdine pyrrolidine dione derivatives with pesticidal activity” (Syngenta Crop Protection, Inc., priority 2009, dated 2014).
